What is called melting point is the temperature of the solid-liquid transition.

Drawing on patent US6472391B2, “Nitrogen-containing heterocyclic compounds” (Millennium Pharmaceuticals, Inc., priority 1996, dated 2002), this text covers melting point for 37 molecules.

SMILES strings stand for the structures.

As for `COc1cc2ncnc(N3CCN(C(=S)NCc4ccc(OC(F)(F)F)cc4)CC3)c2cc1OC` [Compound 204, 4-(6,7-Dimethoxy-4-quinazolinyl)-N-(4-trifluoromethoxybenzyl)-1-piperazinethiocarboxamide], the melting point lay in the range of 131 to 132 °C. In turn, `COc1cc2ncnc(N3CCN(C(=O)Nc4ccc(I)cc4)CC3)c2cc1OC` [Compound 46, 4-(6,7-Dimethoxy-4-quinazolinyl)-N-(4-iodophenyl)-1-piperazinecarboxamide] registered a melting point of 238 to 242 °C. Molecule `COc1cc2ncnc(N3CCN(C(=O)Nc4ccc(C5CCCCC5)cc4)CC3)c2cc1OC` [Compound 26, N-(4-Cyclohexylphenyl)-4-(6,7-dimethoxy-4-quinazolinyl)-1-piperazinecarboxamide] displayed a melting point of 238 to 241 °C. `COc1cc2ncnc(N3CCN(C(=O)Nc4cccc(SC)c4)CC3)c2cc1OC` [Compound 217, 4-(6,7-Dimethoxy-4-quinazolinyl)-N-(3-methylthiophenyl)-1-piperazinecarboxamide] came in with a melting point of 180 to 181 °C. For `O=C(Nc1ccc(Oc2ccccc2)cc1)N1CCN(c2ccnc3c(Cl)cccc23)CC1` [Compound 412, 4-(8-Chloro-4-quinolyl)-N-(4-phenoxyphenyl)-1-piperazinecarboxamide], the melting point fell in the range of 174 to 175 °C.

For the molecule `COc1cc2ncnc(N3CCN(C(=O)Nc4ccc(Cl)nc4)CC3)c2cc1OC` [Compound 272, N-(2-Chloro-5-pyridyl)-4-(6,7-dimethoxy-4-quinazolinyl)-1-piperazinecarboxamide], the melting point fell in the range of 238 to 240 °C. The figure for `COc1cc2ncnc(N3CCN(C(=O)Nc4cccc5ccccc45)CC3)c2cc1OC` [Compound 8, 4-(6,7-Dimethoxy-4-quinazolinyl)-N-(1-naphthyl)-1-piperazinecarboxamide] is 254 to 256 °C; for `COc1cc2ncnc(N3CCN(C(=O)Nc4ccc(C(=O)C(F)(F)F)cc4)CC3)c2cc1OC` [Compound 243, 4-(6,7-Dimethoxy-4-quinazolinyl)-N-(4-trifluoroacetylphenyl)-1-piperazinecarboxamide] it is 144 to 146 °C. Under `COc1cc2ncnc(N3CCN(C(=S)Nc4ccc(C)cc4)CC3)c2cc1OC` [Compound 146, 4-(6,7-Dimethoxy-4-quinazolinyl)-N-(4-tolyl)-1-piperazinethiocarboxamide] stands 204 to 205 °C; under `O=C(Nc1ccc([N+](=O)[O-])cc1)N1CCN(c2ncnc3ccccc23)CC1` [Compound 103, N-(4-Nitrophenyl)-4-(4-quinazolinyl)-1-piperazinecarboxamide], 155 to 158 °C; under `COc1cc2nncc(N3CCN(C(=O)Nc4ccc(Oc5ccccc5)cc4)CC3)c2cc1OC` [Compound 426, 4-(6,7-Dimethoxy-4-cinnolinyl)-N-(4-phenoxyphenyl)-1-piperazinecarboxamide], 165 to 167 °C. Regarding `COc1cc2ncnc(N3CCN(C(=S)NC(c4ccccc4)c4ccccc4)CC3)c2cc1OC` [Compound 133, 4-(6,7-Dimethoxy-4-quinazolinyl)-N-diphenylmethyl-1-piperazinethiocarboxamide], the melting point was 128 to 129 °C. `COc1cc2ncnc(N3CCN(C(=S)NCc4ncc(C(F)(F)F)cc4Cl)CC3)c2cc1OC` [Compound 276, N-(3-Chloro-5-trifluoromethyl-2-picolyl)-4-(6,7-dimethoxy-4-quinazolinyl)-1-piperazinethiocarboxamide] registered a melting point of 182 to 183 °C.

`Cc1cccc2ncnc(N3CCN(C(=O)Nc4ccc(Oc5ccccc5)cc4)CC3)c12` [Compound 287, 4-(5-Methyl-4-quinazolinyl)-N-(4-phenoxyphenyl)-1-piperazinecarboxamide] gave a melting point of 187 to 188 °C. The figure for `COc1cc2ncnc(N3CCN(C(=O)Nc4ccc(Cl)cc4C(F)(F)F)CC3)c2cc1OC` [Compound 48, N-[4-Chloro-2-(trifluoromethyl)phenyl]-4-(6,7-dimethoxy-4-quinazolinyl)-1-piperazinecarboxamide] is 189 to 190 °C; for `COc1cc2ncnc(N3CCN(C(=O)Nc4ccc(F)c([N+](=O)[O-])c4)CC3)c2cc1OC` [Compound 81, 4-(6,7-Dimethoxy-4-quinazolinyl)-N-(4-fluoro-3-nitrophenyl)-1-piperazinecarboxamide] it is 243 to 245 °C. Under `COc1cc2ncnc(N3CCN(C(=O)N[C@H](C)c4ccccc4)CC3)c2cc1OC` [Compound 128, (R)-4-(6,7-Dimethoxy-4-quinazolinyl)-N-(1-phenylethyl)-1-piperazinecarboxamide] stands 189 to 190 °C; under `COc1cc2ncnc(N3CCN(C(=O)NCc4ccsc4)CC3)c2cc1OC` [Compound 258, 4-(6,7-Dimethoxy-4-quinazolinyl)-N-(3-thienylmethyl)-1-piperazinecarboxamide], 178 to 179 °C. The figure for `COc1cc2ncnc(N3CCN(C(=O)Nc4cc(C)c(C)cc4[N+](=O)[O-])CC3)c2cc1OC` [Compound 237, 4-(6,7-Dimethoxy-4-quinazolinyl)-N-(4,5-dimethyl-2-nitrophenyl)-1-piperazinecarboxamide] is 213 to 215 °C.

`CC(C)Oc1ccc2c(N3CCN(C(=O)Nc4ccc(Oc5ccccc5)cc4)CC3)ncnc2c1` [Compound 318, 4-(7-Isopropoxy-4-quinazolinyl)-N-(4-phenoxyphenyl)-1-piperazinecarboxamide] displayed a melting point of 181 to 182 °C.

`COc1cc2ncnc(N3CCN(C(=S)NCCCCc4ccccc4)CC3)c2cc1OC` [Compound 7, 4-(6,7-Dimethoxy-4-quinazolinyl)-N-(4-phenylbutyl)-1-piperazinethiocarboxamide] came in with a melting point of 112 to 114 °C. Under `COc1cc2ncnc(N3CCN(C(=O)Nc4ccc(CN5CCCCC5)cc4)CC3)c2cc1OC` [Compound 100, 4-(6,7-Dimethoxy-4-quinazolinyl)-N-[4-(piperidinomethyl)phenyl]-1-piperazinecarboxamide] stands 122 to 123 °C; under `CCn1c(=O)n(CC)c2cc3c(N4CCN(C(=O)Nc5ccc(Oc6ccccc6)cc5)CC4)ncnc3cc21` [Compound 122, 4-(1,3-Diethyl-1,3-dihydro-2-oxo-2H-imidazo[4,5-g]quinazolin-8-yl)-N-(4-phenoxyphenyl)-1-piperazinecarboxamide], 168 to 169 °C. In turn, `COc1cc2ncnc(N3CCN(C(=O)Nc4ccc(-n5cccc5)cc4)CC3)c2cc1OC` [Compound 280, 4-(6,7-Dimethoxy-4-quinazolinyl)-N-[4-(1-pyrrolyl)phenyl]-1-piperazinecarboxamide] showed a melting point of 224 to 226 °C. Under `COc1cc2ncnc(N3CCN(C(=S)Nc4ccc5ccc6cccc7ccc4c5c67)CC3)c2cc1OC` stands 140 to 145 °C. The figure for `Cn1c(=O)n(C)c2cc3c(N4CCN(C(=O)Nc5ccc([N+](=O)[O-])cc5)CC4)ncnc3cc21` [Compound 386, 4-(1,3-Dihydro-1,3-dimethyl-2-oxo-2H-imidazo[4,5-g]quinazolin-8-yl)-N-(4-nitrophenyl)-1-piperazinecarboxamide] is 299 to 300 °C. In turn, `COc1cc2ncnc(N3CCN(C(=S)NCCN4CCOCC4)CC3)c2cc1OC` [Compound 142, 4-(6,7-Dimethoxy-4-quinazolinyl)-N-(2-morpholinoethyl)-1-piperazinethiocarboxamide] came in with a melting point of 79 to 81 °C. On to `CC(=O)c1ccc(NC(=O)N2CCN(c3ncnc4ccc(F)cc34)CC2)cc1` [Compound 298, N-(4-Acetylphenyl)-4-(6-fluoro-4-quinazolinyl)-1-piperazinecarboxamide], for which the melting point was in the range of 184 to 185 °C.

Turning to `CC(C)c1ccc(NC(=O)N2CCN(c3ncnc4ccc(F)cc34)CC2)cc1` [Compound 296, 4-(6-Fluoro-4-quinazolinyl)-N-(4-isopropylphenyl)-1-piperazinecarboxamide], the melting point fell in the range of 139 to 140 °C. Turning to `S=C(NCc1ccccc1)N1CCN(c2ncnc3cc4c(cc23)OCCO4)CC1` [Compound 374, N-Benzyl-4-(6,7-ethylenedioxy-4-quinazolinyl)-1-piperazinethiocarboxamide], the melting point is 103 to 105 °C. The figure for `COc1cc2ncnc(N3CCN(C(=S)Nc4ccc(C(=O)NC5CCOC5=O)cc4)CC3)c2cc1OC` (racemic) [Compound 92, (dl)-N-[4-(2,3,4,5-Tetrahydro-2-oxofuran-3-ylcarbamoyl)phenyl]-4-(6,7-dimethoxy-4-quinazolinyl)-1-piperazinethiocarboxamide] is 174 to 178 °C.

On to `CCOc1cc2ncnc(N3CCN(C(=S)NCc4cccnc4)CC3)c2cc1OCC` [Compound 354, 4-(6,7-Diethoxy-4-quinazolinyl)-N-(3-picolyl)-1-piperazinethiocarboxamide], for which the melting point was in the range of 90 to 92 °C.

In turn, `COc1cc2ncnc(N3CCN(C(=S)NC4CCOC4=O)CC3)c2cc1OC` (stereo not shown) [Compound 279, 4-(6,7-Dimethoxy-4-quinazolinyl)-N-(2,3,4,5-tetrahydro-2-oxo-3-furyl)-1-piperazinethiocarboxamide] registered a melting point of 147 to 148 °C.

Molecule `O=C(Nc1ccc(Oc2ccccc2)cc1)N1CCN(c2ccnc3c(C(F)(F)F)cccc23)CC1` [Compound 411, N-(4-Phenoxyphenyl)-4-(8-trifluoromethyl-4-quinolyl)-1-piperazinecarboxamide] displayed a melting point of 214 to 215 °C.

On to `CCOC(=O)c1cnc2cc(OC)c(OC)cc2c1N1CCN(C(=O)Nc2ccc(Oc3ccccc3)cc2)CC1` [Compound 408, 4-(6,7-Dimethoxy-3-ethoxycarbonyl-4-quinolyl)-N-(4-phenoxyphenyl)-1-piperazinecarboxamide], for which the melting point fell in the range of 163 to 164 °C.

Regarding `CCN(CC)c1ccc(NC(=O)N2CCN(c3ncnc4cc(OC)c(OC)cc34)CC2)cc1` [Compound 225, N-(4-Diethylaminophenyl)-4-(6,7-dimethoxy-4-quinazolinyl)-1-piperazinecarboxamide], the melting point fell in the range of 221 to 223 °C. The figure for `S=C(NCc1ccccc1)N1CCN(c2ccnc3cc(Cl)ccc23)CC1` [Compound 405, N-Benzyl-4-(7-chloro-4-quinolyl)-1-piperazinethiocarboxamide] is 84 to 86 °C.
